Measured values: the supplement of paper PMC10307832

Tests used:
Assay in all cases: relative viability (nuclei count vs DMSO), 5 days (fraction); higher = more cells survive
Bexarotene = compound: C=C(c1ccc(C(=O)O)cc1)c1cc2c(cc1C)C(C)(C)CCC2(C)C [Bexarotene]
Summary of the method: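 Lung cancer cell lines in 1536-well plates were exposed by pinning to five library-drug doses (not always all listed) √10 apart, following an overnight hold at 37 °C. MetaXpress counted Hoechst-stained nuclei from 4× images taken after 5 days without medium change. Viability is the median ratio of treated-well to vehicle-well nuclei across plates. Plates required control CV below 25% and at least one doubling.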

Bexarotene + Trametinib = compound: C=C(c1ccc(C(=O)O)cc1)c1cc2c(cc1C)C(C)(C)CCC2(C)C [Bexarotene] + CC(=O)Nc1cccc(-n2c(=O)n(C3CC3)c(=O)c3c(Nc4ccc(I)cc4F)n(C)c(=O)c(C)c32)c1 [Trametinib] (partner 0.02 µM)
Summary of the method: (§1)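 One day after seeding in 1536-well plates, lung cancer cell lines were dosed by pin tool. Dosing was either single-drug or a fixed anchor-drug dose plus five library-drug doses (not always all listed) in √10 steps. After 5 days, nuclei were stained in one fix-and-stain step and counted on 4× images, and relative viability is the nuclei count of treated wells over that of vehicle wells, given as the median of duplicate plates.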

Bexarotene + Tozasertib = compound: C=C(c1ccc(C(=O)O)cc1)c1cc2c(cc1C)C(C)(C)CCC2(C)C [Bexarotene] + Cc1cc(Nc2cc(N3CCN(C)CC3)nc(Sc3ccc(NC(=O)C4CC4)cc3)n2)n[nH]1 [Tozasertib] (partner 0.1 µM)
Summary of the method: as §1

Bexarotene + AZD7762 = compound: C=C(c1ccc(C(=O)O)cc1)c1cc2c(cc1C)C(C)(C)CCC2(C)C [Bexarotene] + NC(=O)Nc1cc(-c2cccc(F)c2)sc1C(=O)N[C@H]1CCCNC1 [AZD7762] (partner 0.2 µM)
Summary of the method: as §1

| Cell Line | relative viability (Bexarotene; 0.08 µM) | relative viability (Bexarotene; 0.253 µM) | relative viability (Bexarotene; 0.8 µM) | relative viability (Bexarotene; 2.53 µM) | relative viability (Bexarotene; 8 µM) | relative viability (Bexarotene + Trametinib; first compound 0.08 µM) | relative viability (Bexarotene + Trametinib; first compound 0.253 µM) | relative viability (Bexarotene + Trametinib; first compound 0.8 µM) | relative viability (Bexarotene + Trametinib; first compound 2.53 µM) | relative viability (Bexarotene + Trametinib; first compound 8 µM) | relative viability (Bexarotene + Tozasertib; first compound 0.08 µM) | relative viability (Bexarotene + Tozasertib; first compound 0.253 µM) | relative viability (Bexarotene + Tozasertib; first compound 0.8 µM) | relative viability (Bexarotene + Tozasertib; first compound 2.53 µM) | relative viability (Bexarotene + Tozasertib; first compound 8 µM) | relative viability (Bexarotene + AZD7762; first compound 0.08 µM) | relative viability (Bexarotene + AZD7762; first compound 0.253 µM) | relative viability (Bexarotene + AZD7762; first compound 0.8 µM) | relative viability (Bexarotene + AZD7762; first compound 2.53 µM) | relative viability (Bexarotene + AZD7762; first compound 8 µM) |
| --- | --- | --- | --- | --- | --- | --- | --- | --- | --- | --- | --- | --- | --- | --- | --- | --- | --- | --- | --- | --- |
| HCC-44 | 0.981 | 1.02 | 0.889 | 0.976 | 0.932 | 1.02 | 1.03 | 0.884 | 0.899 | 1.08 | 1.34 | 1.07 | 0.925 | 0.842 | 0.82 | 0.978 | 1.12 | 0.927 | 0.967 | 0.964 |
| PC-14 | 1.05 | 1.17 | 0.973 | 0.92 | 0.896 | 0.708 | 0.901 | 0.961 | 0.818 | 0.821 | 0.626 | 0.778 | 0.649 | 0.576 | 0.66 | 0.357 | 0.436 | 0.415 | 0.299 | 0.338 |
| HOP-62 | 1.13 | 1.11 | 1.15 | 1.04 | 1 | 0.412 | 0.502 | 0.385 | 0.412 | 0.422 | 0.352 | 0.366 | 0.408 | 0.391 | 0.363 | 0.626 | 1.04 | 0.718 | 0.412 | 0.669 |
| NCI-H358 | 1.04 | 1.14 | 0.871 | 0.974 | 1.05 | 0.134 | 0.12 | 0.111 | 0.119 | 0.123 | 0.0977 | 0.105 | 0.0984 | 0.108 | 0.121 | 0.546 | 0.511 | 0.505 | 0.49 | 0.572 |
| NCI-H1666 | 1.03 | 0.924 | 0.913 | 0.98 | 0.857 | 0.912 | 0.788 | 0.839 | 0.809 | 0.743 | 0.658 | 0.611 | 0.52 | 0.558 | 0.668 | 1.02 | 0.839 | 0.82 | 0.817 | 0.895 |
| NCI-H1355 | 1.11 | 1.04 | 0.945 | 0.979 | 0.96 | 0.468 | 0.445 | 0.373 | 0.479 | 0.457 | 0.492 | 0.531 | 0.54 | 0.492 | 0.512 | 0.868 | 0.841 | 0.671 | 0.9 | 0.682 |
| HCC-827 | 1.09 | 0.993 | 0.961 | 1.05 | 0.937 | 0.525 | 0.576 | 0.493 | 0.496 | 0.51 | 0.444 | 0.395 | 0.433 | 0.402 | 0.366 | 0.227 | 0.213 | 0.405 | 0.196 | 0.36 |
| HARA | 1.04 | 1.03 | 0.838 | 0.925 | 0.875 | 0.902 | 0.895 | 0.642 | 0.989 | 0.602 | 0.0906 | 0.0857 | 0.156 | 0.0749 | 0.0939 | 0.336 | 0.272 | 0.412 | 0.303 | 0.262 |
